PubChem BioAssay AID2060607 (Molecular Pharmacology Branch, DTP, NCI, 2025)
Values belong to the compound of their own block, whether it stands above or below them.

System: 876862-298-R-J1-PDC complex spheroids, viability % test/control
Experiment: Anticancer human tumor 876862-298-R-J1-PDC patient-derived endometrial carcinoma cell line growth inhibition [CLK]
Conditions: for IC50: curve of first compound; for viability, T/C: stronger effect = lower value
Summary of the method: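 Multi-cell-type spheroids combined patient-derived tumor cells with HUVEC endothelial cells and human mesenchymal stem cells. Paired agents were dosed in half-log steps down from about clinical Cmax, or from 10 microM where Cmax was unknown.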

[1] = second compound 0.0316 µM, first compound 0.0316 µM
[2] = second compound 0.0316 µM, first compound 0.1 µM
[3] = second compound 0.1 µM, first compound 0.0316 µM
[4] = second compound 0.1 µM, first compound 0.1 µM
[5] = second compound 0.316 µM, first compound 0.0316 µM
[6] = second compound 0.316 µM, first compound 0.1 µM
[7] = second compound 1 µM, first compound 0.0316 µM
[8] = second compound 1 µM, first compound 0.1 µM
[9] = second compound 3.16 µM, first compound 0.0316 µM
[10] = second compound 3.16 µM, first compound 0.1 µM
[11] = second compound 10 µM, first compound 0.0316 µM
[12] = second compound 10 µM, first compound 0.1 µM
[13] = second compound 0.0316 µM, first compound 0.316 µM
[14] = second compound 0.0316 µM, first compound 1 µM
[15] = second compound 0.0316 µM, first compound 3.16 µM
[16] = second compound 0.0316 µM, first compound 10 µM
[17] = second compound 0.1 µM, first compound 0.316 µM
[18] = second compound 0.1 µM, first compound 1 µM
[19] = second compound 0.1 µM, first compound 3.16 µM
[20] = second compound 0.1 µM, first compound 10 µM
[21] = second compound 0.316 µM, first compound 0.316 µM
[22] = second compound 0.316 µM, first compound 1 µM
[23] = second compound 0.316 µM, first compound 3.16 µM
[24] = second compound 0.316 µM, first compound 10 µM
[25] = second compound 1 µM, first compound 0.316 µM
[26] = second compound 1 µM, first compound 1 µM
[27] = second compound 1 µM, first compound 3.16 µM
[28] = second compound 1 µM, first compound 10 µM
[29] = second compound 3.16 µM, first compound 0.316 µM
[30] = second compound 3.16 µM, first compound 1 µM
[31] = second compound 3.16 µM, first compound 3.16 µM
[32] = second compound 3.16 µM, first compound 10 µM
[33] = second compound 10 µM, first compound 0.316 µM
[34] = second compound 10 µM, first compound 1 µM
[35] = second compound 10 µM, first compound 3.16 µM
[36] = second compound 10 µM, first compound 10 µM
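Further: spheroids exposed to drugs for 7 days before readout.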
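Wherever viability, T/C is given: 100% = DMSO vehicle control wells.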

IC50 (second compound 0.0316 µM): > 100 nM
IC50 (second compound 0.1 µM): < 0.316 nM
IC50 (second compound 0.316 µM): < 0.316 nM
IC50 (second compound 1 µM): < 0.316 nM
IC50 (second compound 3.16 µM): < 0.316 nM
IC50 (second compound 10 µM): < 0.316 nM
Structure (SMILES): Cn1ncnc1[C@H]1c2n[nH]c(=O)c3cc(F)cc(c23)N[C@@H]1c1ccc(F)cc1 + CNC(=O)c1ccc(Nc2nc(OC3CCCC3)c3c(-c4ccc5nc(C)oc5c4)c[nH]c3n2)c(OC)c1
viability, T/C (second compound 0.0316 µM, first compound 0.000316 µM): 67.3%
viability, T/C (second compound 0.0316 µM, first compound 0.001 µM): 84.6%
viability, T/C (second compound 0.0316 µM, first compound 0.00316 µM): 73.4%
viability, T/C (second compound 0.0316 µM, first compound 0.01 µM): 79.9%
viability, T/C [1]: 89.7%
viability, T/C [2]: 77.5%
viability, T/C (second compound 0.1 µM, first compound 0.000316 µM): 42.2%
viability, T/C (second compound 0.1 µM, first compound 0.001 µM): 45.4%
viability, T/C (second compound 0.1 µM, first compound 0.00316 µM): 46.7%
viability, T/C (second compound 0.1 µM, first compound 0.01 µM): 46.5%
viability, T/C [3]: 53%
viability, T/C [4]: 45.6%
viability, T/C (second compound 0.316 µM, first compound 0.000316 µM): 40.9%
viability, T/C (second compound 0.316 µM, first compound 0.001 µM): 44.5%
viability, T/C (second compound 0.316 µM, first compound 0.00316 µM): 46%
viability, T/C (second compound 0.316 µM, first compound 0.01 µM): 43.3%
viability, T/C [5]: 44.1%
viability, T/C [6]: 36.7%
viability, T/C (second compound 1 µM, first compound 0.000316 µM): 31.3%
viability, T/C (second compound 1 µM, first compound 0.001 µM): 32.9%
viability, T/C (second compound 1 µM, first compound 0.00316 µM): 30%
viability, T/C (second compound 1 µM, first compound 0.01 µM): 28.5%
viability, T/C [7]: 26.8%
viability, T/C [8]: 27.9%
viability, T/C (second compound 3.16 µM, first compound 0.000316 µM): 22.8%
viability, T/C (second compound 3.16 µM, first compound 0.001 µM): 23.2%
viability, T/C (second compound 3.16 µM, first compound 0.00316 µM): 19.6%
viability, T/C (second compound 3.16 µM, first compound 0.01 µM): 21.5%
viability, T/C [9]: 21.7%
viability, T/C [10]: 18.5%
viability, T/C (second compound 10 µM, first compound 0.000316 µM): 21.1%
viability, T/C (second compound 10 µM, first compound 0.001 µM): 22.4%
viability, T/C (second compound 10 µM, first compound 0.00316 µM): 20%
viability, T/C (second compound 10 µM, first compound 0.01 µM): 23.3%
viability, T/C [11]: 17.5%
viability, T/C [12]: 16.2%

IC50 (second compound 0.0316 µM): < 31.6 nM
IC50 (second compound 0.1 µM): < 31.6 nM
IC50 (second compound 0.316 µM): < 31.6 nM
IC50 (second compound 1 µM): < 31.6 nM
IC50 (second compound 3.16 µM): < 31.6 nM
IC50 (second compound 10 µM): < 31.6 nM
Structure (SMILES): Nc1ccn(C2OC(CO)C(O)C2(F)F)c(=O)n1 (stereo unspecified) + CNC(=O)c1ccc(Nc2nc(OC3CCCC3)c3c(-c4ccc5nc(C)oc5c4)c[nH]c3n2)c(OC)c1
viability, T/C [1]: 15.1%
viability, T/C [2]: 7.66%
viability, T/C [13]: 9.02%
viability, T/C [14]: 6.2%
viability, T/C [15]: 7.72%
viability, T/C [16]: 9.97%
viability, T/C [3]: 16.5%
viability, T/C [4]: 9.17%
viability, T/C [17]: 9.31%
viability, T/C [18]: 7.24%
viability, T/C [19]: 7.42%
viability, T/C [20]: 10.1%
viability, T/C [5]: 17.7%
viability, T/C [6]: 7.67%
viability, T/C [21]: 7.58%
viability, T/C [22]: 5.78%
viability, T/C [23]: 7.22%
viability, T/C [24]: 6.26%
viability, T/C [7]: 14.6%
viability, T/C [8]: 8.47%
viability, T/C [25]: 6.7%
viability, T/C [26]: 6.04%
viability, T/C [27]: 6.8%
viability, T/C [28]: 5.73%
viability, T/C [9]: 10.5%
viability, T/C [10]: 5.98%
viability, T/C [29]: 5.8%
viability, T/C [30]: 6.15%
viability, T/C [31]: 4.91%
viability, T/C [32]: 5.13%
viability, T/C [11]: 8.61%
viability, T/C [12]: 5.73%
viability, T/C [33]: 5.74%
viability, T/C [34]: 5.44%
viability, T/C [35]: 6.11%
viability, T/C [36]: 3.96%

IC50 (second compound 0.0316 µM): > 10000 nM
IC50 (second compound 0.1 µM): < 31.6 nM
IC50 (second compound 0.316 µM): < 31.6 nM
IC50 (second compound 1 µM): < 31.6 nM
IC50 (second compound 3.16 µM): < 31.6 nM
IC50 (second compound 10 µM): < 31.6 nM
Structure (SMILES): O=c1[nH]cc(F)c(=O)[nH]1 + CNC(=O)c1ccc(Nc2nc(OC3CCCC3)c3c(-c4ccc5nc(C)oc5c4)c[nH]c3n2)c(OC)c1
viability, T/C [1]: 68.7%
viability, T/C [2]: 84.1%
viability, T/C [13]: 81.4%
viability, T/C [14]: 94.6%
viability, T/C [15]: 57.9%
viability, T/C [16]: 49.6%
viability, T/C [3]: 46.7%
viability, T/C [4]: 49.5%
viability, T/C [17]: 49.2%
viability, T/C [18]: 45%
viability, T/C [19]: 45.3%
viability, T/C [20]: 41.6%
viability, T/C [5]: 49.7%
viability, T/C [6]: 42%
viability, T/C [21]: 41.9%
viability, T/C [22]: 40.5%
viability, T/C [23]: 40.1%
viability, T/C [24]: 38.5%
viability, T/C [7]: 31.5%
viability, T/C [8]: 32.2%
viability, T/C [25]: 32.5%
viability, T/C [26]: 31.1%
viability, T/C [27]: 24%
viability, T/C [28]: 24.7%
viability, T/C [9]: 25%
viability, T/C [10]: 25.9%
viability, T/C [29]: 22.9%
viability, T/C [30]: 19.9%
viability, T/C [31]: 18%
viability, T/C [32]: 14.2%
viability, T/C [11]: 20.3%
viability, T/C [12]: 21.2%
viability, T/C [33]: 20.1%
viability, T/C [34]: 21.6%
viability, T/C [35]: 17.6%
viability, T/C [36]: 13.6%
